Tests used:
K562 cells = test: K562 cell proliferation assay (CellTiter-Glo); format: cell-based; conditions: Homo sapiens, K562, 72 h, CellTiter-Glo viability, read-out: Cell Line (IC50, nM) K562
In short: (§1)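 Cells in IMDM/10% FBS seeded at 2,000 (K562) or 1,500 (HL60) per well, exposed to serially diluted compounds for 72 h at 37 °C, 5% CO2. Viability by CellTiter-Glo luminescence, normalized between DMSO (high) and cell-free media (low) controls.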

HL60 cells = test: HL60 cell proliferation assay (CellTiter-Glo); format: cell-based; conditions: Homo sapiens, HL-60, 72 h, CellTiter-Glo viability, read-out: Cell Line (IC50, nM) HL60
In short: as §1

ABL1 = target: T1, ABL1 (Homo sapiens, UniProt P00519); test: Luminescence-based ABL kinase assay (ADP-Glo, 300 μM ATP); format: biochemical
T1 construct: purchased Carna Biosciences
In short: (§2)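 Buffer: 50 mM HEPES pH 7.5, 10 mM MgCl2, 1 mM EGTA, 2 mM DTT, 0.05% BSA. Compound preincubated 30 min at RT with kinase (3.325 nM in enzyme solution), then started with a Peptide 2 (6 μM) and ATP (1.2 mM) solution, both stock levels; 90 min at RT.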

ABL1 (T315I) = ABL1 (T315I) (Homo sapiens, UniProt P00519, T315I); test: Luminescence-based ABL kinase assay (ADP-Glo, 300 μM ATP), T315I mutant; format: biochemical
In short: as §2

[1] = system: pCRKL in Ba/F3 ABL1 (T315I) cells; test: pCRKL ELISA assay in Ba/F3 ABL T315I cells; format: cell-based; conditions: Mus musculus, BaF3, 1.5 h, 90 minutes incubation, read-out: pCRKL ELISA, Cell Line IC50 (nM) Ba/F3 ABL1 (T315I)
Procedure: (§3) K562 or Ba/F3 ABL T315I cells (2.0*10^5 cells/100 μl/well) were seeded in 96 well (Corning, cat #3799). Compounds were dissolved in DMSO, serially diluted in DMSO and then were added, mixed, and incubated for 90 minutes at 37° C., 5% CO2. Following the 90-minute incubation, plates were centrifuged for 5 min at 3000 RPM and supernatant was removed from each well. Cells were washed 3 times with 150 μl PBS prior to addition of 100 μl cell RIPA lysis buffer (Boston BioProducts, cat #BP-115D) supplied with 1×complete ULTRA cocktail inhibitor (Roche, 05892791001) and 1×PhosSTOP Phosphatase Inhibitor Cocktail Tablets (Roche, 04906837001). Cells were incubated with lysis buffer for 1 hour at 4° C. prior to storage at −80 C.
(§4) A capture antibody able to detect phosphorylated and non-phosphorylated CRKL (R&D Systems, cat #AF5127) was added to Meso Scale Discovery (MSD) standard bind plates (MSD, cat #L15XA-3) at 5 ug/mL and incubated at 4° C. overnight. The next day, plates were washed with PBS+0.05% Tween20 (PBST) and 150 μl of 5% BSA blocking solution was added for 1 hour at room temperature with shaking. Plates were washed with PBST. Lysates were thawed and 30 μl of lysate was added to the MSD plates and incubated for 2 hours at room temperature with shaking. MSD plates were washed with PBST and 30 μl of a detection antibody that binds phosphorylated pCRKL (R&D Systems, cat #MAB6910) was added at 1 μg/mL to each well. Plates were incubated for 1 hour at room temperature with shaking. Plates were washed with PBST prior to addition of 30 μl of a sulfo tagged goat anti mouse detection antibody (MSD cat #R32AC-1). Plates were incubated for 1 hour at room temperature with shaking. Plates were washed with PBST prior to addition of 150 ul of 1×MSD read buffer T (MSD, cat 4R92TC-2). Electrochemiluminescence (ECLU) was read on an MSD plate reader (Meso Scale Discovery). The remaining activity by calculated as follows: 00 Relative activity=100×(ELCUsample−ECLULC)/(ECLUHC−ECLULC). The low and high controls (LC/HC) are generated from lysate from wells without cells or with cells treated with 0.1% DMSO, respectively. IC50 values were calculated using XLFit software using a nonlinear regression model with a sigmoidal dose response and are shown in Table 4 and Table 5 below.

pCRKL in K562 cells = test: pCRKL ELISA assay in K562 cells; format: cell-based; conditions: Homo sapiens, 1.5 h, 90 minutes incubation, read-out: PCRKL ELISA, Cell Line IC50 (nM) K562
Procedure: as §3, §4

| Structure (SMILES) | IC50 (K562 cells) [nM] | IC50 (HL60 cells) [nM] | IC50 (ABL1) [nM] | IC50 (ABL1 (T315I)) [nM] | IC50 [1] [nM] | IC50 (pCRKL in K562 cells) [nM] |
| --- | --- | --- | --- | --- | --- | --- |
| COc1cc2[nH]ncc2cc1-c1c[nH]c2nc(NC(=O)[C@H]3C[C@H]3F)ccc12 [Compound 53, (1R,2R)-2-fluoro-N-[3-(6-methoxy-1H-indazol-5-yl)-1H-pyrrolo[2,3-b]pyridin-6-yl]cyclopropane-1-carboxamide] | 267 | 3110 | 6.92 | 5.63 |  | 584 |
| O=C(Nc1ccc2c(-c3ccc4nccn4c3)c[nH]c2n1)C1CC1 [Compound 56, N-(3-(imidazo[1,2-a]pyridin-6-yl)-1H-pyrrolo[2,3-b]pyridin-6-yl)cyclopropanecarboxamide] | 183 | 120 | 30.3 | 53.5 |  | 745 |
| COc1ccccc1-c1c[nH]c2nc(NC(=O)[C@@H]3C[C@@H]3F)ccc12 [Compound 3, (1S,2S)-2-fluoro-N-(3-(2-methoxyphenyl)-1H-pyrrolo[2,3-b]pyridin-6-yl)cyclopropane-1-carboxamide] | 80.3 | > 10000 | 8.17 | 0.896 |  | 174 |
| CCOc1ncccc1-c1c[nH]c2nc(NC(=O)[C@@H]3C[C@@H]3F)ccc12 [Compound 62, (1S,2S)—N-(3-(2-ethoxypyridin-3-yl)-1H-pyrrolo[2,3-b]pyridin-6-yl)-2-fluorocyclopropane-1-carboxamide] | 137 | > 10000 | 20.8 | 43 |  | 171 |
| COc1c(-c2c[nH]c3nc(NC(=O)C4CC4)ccc23)ccc2[nH]cnc12 [Compound 15, N-[3-(4-methoxy-1H-1,3-benzodiazol-5-yl)-1H-pyrrolo[2,3-b]pyridin-6-yl]cyclopropanecarboxamide] | 181 | 1710 | 12.1 | 2.78 |  | 468 |
| COc1nc2nc[nH]c2cc1-c1c[nH]c2nc(NC(=O)C3CC3)ccc12 [Compound 61, N-(3-[5-methoxy-1H-imidazo[4,5-b]pyridin-6-yl]-1H-pyrrolo[2,3-b]pyridin-6-yl)cyclopropanecarboxamide] | 36.9 | > 10000 | 3.28 | 5.08 |  | 88.4 |
| COc1ncccc1-c1c[nH]c2nc(NC(=O)[C@H]3C[C@H]3F)ccc12 [Compound 26, (1R,2R)-2-fluoro-N-(3-(2-methoxypyridin-3-yl)-1H-pyrrolo[2,3-b]pyridin-6-yl)cyclopropane-1-carboxamide] | 220 | > 10000 | 62.9 | 68.4 |  | 680 |
| COc1cc2[nH]ncc2cc1-c1c[nH]c2nc(NC(=O)[C@@H]3C[C@@H]3F)ccc12 [Compound 50, (1S,2S)-2-fluoro-N-[3-(6-methoxy-1H-indazol-5-yl)-1H-pyrrolo[2,3-b]pyridin-6-yl]cyclopropane-1-carboxamide] | 120 | > 10000 | 3.9 | 2.51 |  | 151 |
| COc1cc2[nH]cnc2cc1-c1c[nH]c2nc(NC(=O)[C@@H]3C[C@@H]3F)ccc12 [Compound 49, (1S,2S)-2-fluoro-N-[3-(6-methoxy-1H-1,3-benzodiazol-5-yl)-1H-pyrrolo[2,3-b]pyridin-6-yl]cyclopropane-1-carboxamide] | 295 | > 10000 | 4.33 | 3.04 |  | 585 |
| CCOc1ncccc1-c1c[nH]c2nc(NC(=O)C3CC3)ccc12 [Compound 47, N-[3-(2-ethoxypyridin-3-yl)-1H-pyrrolo[2,3-b]pyridin-6-yl]cyclopropanecarboxamide] | 292 | > 10000 | 7.47 | 0.705 |  | 685 |
| COc1cc2cn[nH]c2cc1-c1c[nH]c2nc(NC(=O)[C@@H]3C[C@@H]3F)ccc12 [Compound 58, (1S,2S)-2-fluoro-N-[3-(5-methoxy-1H-indazol-6-yl)-1H-pyrrolo[2,3-b]pyridin-6-yl]cyclopropane-1-carboxamide] | 132 | > 10000 | 2.92 | 3.4 |  | 281 |

Results, then the compound that gave them:

| IC50 (K562 cells) [nM] | IC50 (HL60 cells) [nM] | IC50 (ABL1) [nM] | IC50 (ABL1 (T315I)) [nM] | IC50 [1] [nM] | IC50 (pCRKL in K562 cells) [nM] | Structure (SMILES) |
| --- | --- | --- | --- | --- | --- | --- |
| 30.5 | > 10000 | 5.97 | 5.48 | 84.2 |  | COc1cc2ncsc2cc1-c1c[nH]c2nc(NC(=O)[C@@H]3C[C@@H]3F)ccc12 [Compound 86, (1S,2S)-2-fluoro-N-(3-(5-methoxybenzo[d]thiazol-6-yl)-1H-pyrrolo[2,3-b]pyridin-6-yl)cyclopropane-1-carboxamide] |
| 67.1 | > 10000 | 11.3 | 9.08 | 124 |  | COc1cccc(OC)c1-c1c[nH]c2nc(NC(=O)NCCN3CCN(C)CC3)ccc12 [Compound 117, 3-[3-(2,6-dimethoxyphenyl)-1H-pyrrolo[2,3-b]pyridin-6-yl]-1-[2-(4-methylpiperazin-1-yl)ethyl]urea] |
| 83.3 | > 10000 | 42.7 | 28.1 |  | 272 | COc1cccc(OC)c1-c1c[nH]c2nc(NC(=O)NCCCN(C)C)ccc12 [Compound 131, 1-[3-(2,6-dimethoxyphenyl)-1H-pyrrolo[2,3-b]pyridin-6-yl]-3-[3-(dimethylamino)propyl]urea] |
| 351 | > 10000 | 55.6 | 63 |  | 572 | COc1ncc(F)cc1-c1n[nH]c2nc(NC(=O)[C@@H]3C[C@@H]3F)ccc12 [Compound 74, (1S,2S)-2-fluoro-N-[3-(5-fluoro-2-methoxypyridin-3-yl)-1H-pyrazolo[3,4-b]pyridin-6-yl]cyclopropane-1-carboxamide] |
| 437 | > 10000 | 13.5 | 20.5 |  | 1050 | COc1cc2[nH]ncc2cc1-c1n[nH]c2nc(NC(=O)[C@@H]3C[C@@H]3F)ccc12 [Compound 82, (1S,2S)-2-fluoro-N-[3-(6-methoxy-1H-indazol-5-yl)-1H-pyrazolo[3,4-b]pyridin-6-yl]cyclopropane-1-carboxamide] |
| 255 | > 10000 | 40.7 | 64.5 |  | 328 | CCOc1ncccc1-c1c[nH]c2nc(NC(=O)[C@H]3C[C@H]3F)ccc12 [Compound 63, (1R,2R)—N-(3-(2-ethoxypyridin-3-yl)-1H-pyrrolo[2,3-b]pyridin-6-yl)-2-fluorocyclopropane-1-carboxamide] |
| 727 | > 10000 | 106 | 137 |  | 1120 | COc1ncccc1-c1n[nH]c2nc(NC(=O)[C@@H]3C[C@@H]3F)ccc12 [Compound 77, (1S,2S)-2-fluoro-N-[3-(2-methoxypyridin-3-yl)-1H-pyrazolo[3,4-b]pyridin-6-yl]cyclopropane-1-carboxamide] |
| 142 | > 10000 | 49.4 | 59.3 | 1060 |  | COc1ncc(F)c(OC)c1-c1c[nH]c2nc(NC(=O)NCCN3CCN(C)CC3)ccc12 [Compound 116, 3-[3-(5-fluoro-2,4-dimethoxypyridin-3-yl)-1H-pyrrolo[2,3-b]pyridin-6-yl]-1-[2-(4-methylpiperazin-1-yl)ethyl]urea] |
